Data set [1] has as its target T1, somatostatin receptor (Rattus norvegicus, UniProt P30680).
T1 construct: endogenous in cells; host or cells: AR42J rat pancreatic tumor cells (membrane preparation)
The data set can be described thus: Inhibition of [125I-Tyr11]somatostatin-14 binding to AR42J rat pancreatic tumor cell membranes. The settings on record: [125I-Tyr11]somatostatin-14 0.5 nM, 25 min at 30° C. As to the method:
The rat pancreatic tumor cell line AR42J expressing the somatostatin receptor was cultured in Dulbecco's modified essential media (DMEM) supplemented with 10% fetal calf serum (FCS) and 8 mM glutamine in a humidified 5% CO2 atmosphere at 37° C. Harvested cells were homogenized in cold buffer (50 mM Tris-HCl, pH 7.4), and the homogenate was then centrifuged at 39,000 g for 10 min at 4° C. Pellets were washed once with buffer and then resuspended in ice-cold 10 mM Tris-HCl buffer (pH 7.4). Equal aliquots of this cell membrane preparation were then incubated with [^125I-Tyr^11]somatostatin-14 (Amersham, Arlington Heights, Ill.) at a final concentration of 0.5 nM at 750,000 cpm/mL, specific activity 2000Ci/mmol and either a peptide or peptide-rhenium complex of the invention (at a final concentration ranging from […] in 50 mM HEPES buffer, pH 7.4, containing 1% bovine serum albumin, 5 mM MgCl2, 0.02 mg/mL bacitracin, 0.02 mg/mL phenylmethyl-sulfonylfluoride and 200,000 IU Trasylol) for 25 min at 30° C.
After incubation, this membrane mixture was filtered through a polyethyleneimine-washed GC/F filter (Whatman Ltd., Maidstone, England) using a filtration manifold, and the residue remaining on the filter was washed three times with 5 mL cold HEPES buffer. The filter and a sample of the filter washings were then counted on a gamma counter. […]

For data set [2], the system named is thrombus. The data set can be described thus: In vivo imaging of deep vein thrombosis with Tc-99m labeled thrombus targeting peptide, canine model. Particulars: Tc-99m labeled peptide, i.v., dog, ratio.
Description: (§1) Mongrel dogs (25–35 lb., fasted overnight) were sedated with a combination of ketamine and aceprozamine intramuscularly and then anesthetized with sodium pentabarbital intravenously. In each animal, an 18-gauge angiocath was inserted in the distal half of the right femoral vein and a 5 mm or 8 mm Dacron®-entwined stainless steel embolization coil (Cook Co., Bloomington Ind.) was placed in the femoral vein at approximately mid-femur. The catheter was removed, the wound sutured and the placement of the coil documented by X-ray. The animals were then allowed to recover overnight.
(§2) One day following coil placement, each animal was re-anesthetized, intravenous saline drips placed in each foreleg and a urinary bladder catheter inserted to collect urine. The animal was placed supine under a gamma camera equipped with a low-energy, all purpose collimator and photopeaked for Tc-99m. […] The second line was maintained for blood collection.
(§3) Gamma camera imaging was started simultaneously with injection. Anterior images over the heart were acquired as a dynamic study (10 sec image acquisitions) over the first 10 min, and then as static images at 1, 2, 3 and 4h post-injection. Anterior images over the legs were acquired for 500,000 counts or 20 min (whichever is shorter), at approximately 10–20 min, and at approximately 1, 2, 3 and 4h post-injection. Leg images were collected with a lead shield placed over the bladder.
(§4) Following collection of the final image, each animal was deeply anesthetized with pentobarbital. Two blood samples were collected using a heparinized syringe followed by a euthanizing dose of saturated potassium chloride solution administered by intercardiac or bolus intravenous injection. […] The thrombus, coil and coil Dacron fibres were then dissected free of the vessel. The thrombus, saline-washed vessel samples, coil and coil Dacron® fibres were separated, and each sample was placed in a pre-weighed test tube. The samples were weighed and counted in a gamma well counter in the Tc-99m channel, along with known fractions of the injected doses.
(§5) Fresh thrombus weight, percent injected dose (% ID)/g in the thrombus and blood obtained just prior to euthanasia and thrombus/blood and thrombus/muscle ratios were determined. From the computer-stored images, thrombus/background ratios were determined by analysis of the counts/pixel measured in regions-of-interest (ROI) drawn over the thrombus and adjacent muscle.
Assay in data set [3]: as above
Description: as §1, §2, §3, §4, §5
Particulars: mongrel, dog, thrombus, iv, total radioactivity.

2 molecules from patent US7238340B1, “Monoamine, diamide, thiol-containing metal chelating agents” (CIS bio international, priority 1991, dated 2007) can be followed below.

Each structure is given as a SMILES string. Starred links: 1 amine or outer side, 2 acyl side, 3 side chain; linkers in the order of their positions; H or OH if unused. Non-standard residues stand in square brackets, D forms with d. Residues, ends and D or L forms follow the SMILES beside them. Phe(4-Cl) = N[C@@H](Cc1ccc(Cl)cc1)C(=O)O; d2Nal = N[C@H](Cc1ccc2ccccc2c1)C(=O)O; εLys = N[C@@H](CCCCN[*:1])C(=O)[*:2]

T1 sequence (P30680 whole entry): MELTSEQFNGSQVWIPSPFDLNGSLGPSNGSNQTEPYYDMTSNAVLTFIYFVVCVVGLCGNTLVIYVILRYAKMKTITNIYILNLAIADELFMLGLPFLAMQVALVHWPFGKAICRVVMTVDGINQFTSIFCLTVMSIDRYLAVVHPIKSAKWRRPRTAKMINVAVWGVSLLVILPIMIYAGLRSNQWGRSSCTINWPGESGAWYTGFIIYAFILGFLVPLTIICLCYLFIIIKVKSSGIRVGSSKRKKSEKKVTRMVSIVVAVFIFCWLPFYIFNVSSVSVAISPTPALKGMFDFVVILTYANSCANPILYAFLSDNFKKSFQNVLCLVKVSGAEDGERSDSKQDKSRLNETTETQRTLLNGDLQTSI

One may read the Ki as the dissociation constant of the complex between target and ligand, obtained from inhibition or displacement. `CC(=O)N[C@H](Cc1ccc2ccccc2c1)C(=O)N[C@@H](Cc1ccc(Cl)cc1)C(=O)N[C@@H](Cc1ccc(O)cc1)C(=O)N[C@H](Cc1c[nH]c2ccccc12)C(=O)N[C@@H](CCCCN)C(=O)N[C@H](C(=O)N[C@@H](Cc1ccccc1)C(=O)N[C@H](C(=O)NCCCC[C@H](N)C(=O)NCC(=O)N[C@@H](CS)C(=O)N[C@@H](CCCCN)C(=O)N[C@@H](CCCCN)C(N)=O)[C@@H](C)O)[C@@H](C)O` [Peptide P548, acetyl.NalD.Cpa.YWDKTFT(ε-K)GCKK.amide] (Ac-[d2Nal][Phe(4-Cl)]Y[dW]KTFT[εLys]GCKK-NH2) showed an inhibition constant Ki in data set [1] of 3.6 nM.
The tissue uptake is the share of the injected amount in each gram of the tissue. As to `CC(=O)NCSC[C@H](NC(=O)CNC(=O)CNC(=O)[C@@H]1CSCC(=O)N[C@H](Cc2ccc(O)cc2)C(=O)N[C@@H](Cc2ccc(C(=N)N)cc2)C(=O)NCC(=O)N[C@@H](CC(=O)O)C(=O)N1)C(=O)NCC(=O)N[C@@H](CSCNC(C)=O)C(=O)NCC(=O)NCC(=O)N[C@@H](CSCC(=O)NCCCC[C@H](NC(=O)CSC[C@H](NC(=O)CNC(=O)CNC(=O)[C@H](CSCNC(C)=O)NC(=O)CNC(=O)[C@H](CSCNC(C)=O)NC(=O)CNC(=O)CNC(=O)[C@@H]1CSCC(=O)N[C@H](Cc2ccc(O)cc2)C(=O)N[C@@H](Cc2ccc(C(=N)N)cc2)C(=O)NCC(=O)N[C@@H](CC(=O)O)C(=O)N1)C(N)=O)C(=O)NCCCC[C@H](N)C(=O)NCC(=O)N[C@@H](CS)C(N)=O)C(N)=O` [Peptide P747, (CH2CO.YD.Amp.GDCGGCAcmGCAcmGGC.amide)2(CH2CO)2K(ε-K)GC.amide], in data set [2], the Thrombus/Blood was 15 and the Thrombus/Muscle was found to be 70. Besides, the tissue uptake at 4 h in data set [3] was determined as 0.043 %ID/g.
